Reference: patent US20260091082A1, “CYCLIC PEPTIDE DERIVATIVE COMPOSITION FOR TREATING OR PREVENTING EYE DISEASE” (DKS Co. Ltd., priority 2022, published 2026)
“And” between values parts separate entries of the source, which are not always exact repeats. Identical values can stand only once.

Experiments:
[1] = Body weight measurement during the CNV rat test; type: in vivo; settings: for Body Weight (Average): 14 days 4 times a day
Experimental: The appearance, behavior, and state of excrement or the like were observed every day.
The body weight was measured on the animal arrival date, the preliminary housing end date (grouping date), the eyedrop administration start date, the laser irradiation date (Day 0), and the eyeball enucleation date (Day 14).

[2] = system: anterior chamber aqueous humor pressure load rat model; test: Retinal thickness (IPL, INL, ONL) in retinal damage model induced by anterior chamber aqueous humor pressure load; type: in vivo, Rat; Slc: SD; settings: 1 mg/mL eye drop (not pre), right eye
Experimental: • Name: Compound 9 • Source: Synthesized in the above Examples • Used amount: 0.4 mL (50 mg/mL solution) • Storage conditions: Freezing, light shielding
Method for preparing test substance (1 mg/mL): A high concentration solution prepared at 50 mg/mL was diluted 50 times with a medium to prepare a 1 mg/mL administration solution.
• Name: MK-801 • Distributor: SIGMA-ALDRICH • Use amount: 0.0501 g • Storage condition: refrigerated (2° C. to 8° C.)
Method for preparing positive control substance (10 mg/mL): 0.0501 g was weighed out and made up to a total volume of 5 mL with a control substance (physiological saline).
• Species and strains: Rat; Slc: SD • Number of animals on arrival and sex: 50 males • Age in weeks at arrival: 6 weeks old • Body weight range at arrival: 147.2 to 170.0 g • Source: Japan SLC, Inc.
Grouping was performed two days before the first creation of the retinal damage model induced by an anterior chamber aqueous humor pressure load. Using the daily body weight as an index, stratified random allocation was performed using SAS (Ver. 9.3, SAS Institute Japan Ltd.) and EXSUS (Ver. 8.0, CAC Croit Corporation) so that an average value of the body weights of each group was approximately uniform.
• Administration route: Eyedrop administration, intravenous administration • Administration method (eyedrop): Eyedrop administration was performed on a treated eye (right eye) of a rat using a micropipette 4 times a day (at intervals of 1.5 hours or more). • Administration method (intravenous): The amount of administration solution, calculated from the body weight on the day of administration, was administered from the tail vein using a syringe and an injection needle about 30 minutes before ischemic load. • Time of administration: Administration was performed according to the following schedule.
1. 10 mg/kg xylazine hydrochloride was intramuscularly administered on the model creation day (day 0). A rat was placed in an anesthesia box and subjected to general anesthesia with isoflurane (5%, oxygen:nitrous oxide=1:3). When anesthesia was effective, the rat was taken out of the anesthesia box, an inhalation anesthetic mask was worn, and anesthesia was maintained with isoflurane (1% to 5%, oxygen nitrous oxide=1:3).
2. The body temperature was maintained at 37° C. with a warming mat, and a mydrin P ophthalmic solution was instilled in the right eye (treated eye) of the rat to dilate the pupil, then the cravit ophthalmic solution 1.5% (Santen Pharmaceutical Co., Ltd.) was instilled.
3. A bottle of an IV bag containing physiological saline was previously suspended so that a water surface was 155 cm (100 mmHg or more) higher than the eye of the rat. The IV bag was connected to a pediatric infusion set (Terumo Corporation), a 27 G injection needle thereof was inserted into and fixed to the anterior chamber while slightly dripping the liquid from a needle tip. The model was created in the light phase (6:00 to 18:00) in consideration of the diurnal variation of the intraocular pressure.
4. After the needle was inserted into the anterior chamber, pressure (100 mmHg or more) was loaded and maintained in the anterior chamber by associating the reflux system.
5. After an ischemic load for 45 minutes, the injection needle and the like were removed, the inhalation anesthetic mask was removed, and the rat was sufficiently woken up under a warming mat, and then returned to the cage.
6. For 2 days after surgery, 10 mg/kg xylazine hydrochloride was intramuscularly administered as an analgesic for the purpose of alleviating the pain after the treatment.
1. Fourteen days after model creation, general anesthesia was performed with isoflurane (5%, oxygen:nitrous oxide=1:3), euthanasia was then performed by exsanguination, a suture was placed as a marker at the 12 o'clock position of the ocular conjunctiva, and eyeball enucleation was performed.
2. […]

SMILES: CC[C@@]1(C)Oc2cc(ccc2O)C[C@H](NC)C(=O)N[C@@H](C(C)C)C(=O)N[C@@H]1C(=O)N[C@@H](CC(=O)O)C(=O)O [Compound 9]
- Body Weight (Average) ([1]; Group 3, eye drop 5 μg/5 μL/eye, Day 0 (Laser injection)): 152.66 g
- Body Weight (Average) ([1]; Group 3, eye drop 5 μg/5 μL/eye, Day 14 (Enucleation)): 184.36 g
- Body Weight (Average) ([1]; Group 3, eye drop 5 μg/5 μL/eye, Day −3 or Day −2 (Grouping)): 141.80 g
- Weight (g) (Individual) ([1]; Group 3 individual animals, eye drop 5 μg/5 μL/eye, Enucleation (Day 14)): 187.51 g and 200.36 g and 188.53 g and 178.12 g and 191.73 g and 185.42 g and 178.06 g and 179.74 g and 187.00 g and 167.09 g
- Weight (g) (Individual) ([1]; Group 3 individual animals, eye drop 5 μg/5 μL/eye, Grouping (Day −3 or −2)): 142.67 g and 150.51 g and 144.41 g and 133.08 g and 140.65 g and 139.40 g and 138.22 g and 145.52 g and 148.31 g and 135.25 g
- Weight (g) (Individual) ([1]; Group 3 individual animals, eye drop 5 μg/5 μL/eye, Laser injection (Day 0)): 156.06 g and 160.40 g and 156.65 g and 141.07 g and 149.62 g and 153.89 g and 146.49 g and 158.03 g and 159.18 g and 145.16 g
- Body Weight (Average) ([1]; Group 4, eye drop 50 μg/5 μL/eye, Day 0 (Laser injection)): 152.84 g
- Body Weight (Average) ([1]; Group 4, eye drop 50 μg/5 μL/eye, Day 14 (Enucleation)): 186.10 g
- Body Weight (Average) ([1]; Group 4, eye drop 50 μg/5 μL/eye, Day −3 or Day −2 (Grouping)): 141.65 g
- Weight (g) (Individual) ([1]; Group 4 individual animals, eye drop 50 μg/5 μL/eye, Enucleation (Day 14)): 171.86 g and 175.04 g and 182.32 g and 197.31 g and 192.55 g and 179.90 g and 198.77 g and 183.99 g and 193.77 g and 185.47 g
- Weight (g) (Individual) ([1]; Group 4 individual animals, eye drop 50 μg/5 μL/eye, Grouping (Day −3 or −2)): 133.40 g and 133.47 g and 138.61 g and 149.89 g and 142.02 g and 140.70 g and 144.50 g and 145.24 g and 149.29 g and 139.35 g
- Weight (g) (Individual) ([1]; Group 4 individual animals, eye drop 50 μg/5 μL/eye, Laser injection (Day 0)): 140.92 g and 141.64 g and 146.31 g and 156.67 g and 152.34 g and 152.92 g and 159.45 g and 160.10 g and 163.58 g and 154.47 g
- Thickness of INL (μm), Distance from Optic Disk 300 μm ([2]; 300 μm from optic disk, individual measurements per animal): 27.268 μm and 29.194 μm and 27.960 μm and 26.601 μm and 24.843 μm (2×) and 25.835 μm and 20.052 μm and 21.030 μm and 18.618 μm and 25.039 μm and 27.705 μm and 29.211 μm and 23.276 μm and 30.228 μm and 28.329 μm (2×) and 29.740 μm (2×) and 27.292 μm and 28.168 μm and 41.632 μm and 38.927 μm and 48.313 μm and 31.260 μm and 35.869 μm and 37.963 μm and 31.090 μm and 28.954 μm and 30.909 μm
- Thickness of IPL (μm), Distance from Optic Disk 300 μm ([2]; 300 μm from optic disk, individual measurements per animal, listed as compond 9): 32.198 μm and 30.002 μm and 34.224 μm and 39.119 μm and 37.558 μm and 34.827 μm and 27.585 μm and 28.700 μm and 33.412 μm and 37.176 μm (3×) and 37.457 μm and 36.016 μm and 35.842 μm and 37.411 μm and 38.117 μm and 35.930 μm and 36.185 μm and 37.237 μm and 38.550 μm and 39.901 μm and 45.876 μm and 47.765 μm and 46.968 μm and 35.532 μm and 36.791 μm and 36.389 μm and 42.704 μm and 39.019 μm
- Thickness of INL (μm), Distance from Optic Disk 300 μm, Mean ([2]; 300 μm from optic disk, mean per animal): 28.141 μm and 25.760 μm and 19.900 μm and 25.862 μm and 27.572 μm and 28.454 μm and 28.746 μm and 42.957 μm and 35.031 μm and 30.318 μm
- Thickness of IPL (μm), Distance from Optic Disk 300 μm, Mean ([2]; 300 μm from optic disk, mean per animal, listed as compond 9): 32.141 μm and 37.168 μm and 29.899 μm and 36.883 μm and 36.810 μm and 36.744 μm and 38.563 μm and 46.870 μm and 36.237 μm and 39.633 μm
- Thickness of INL (μm), Distance from Optic Disk 600 μm ([2]; 600 μm from optic disk, individual measurements per animal): 24.738 μm and 26.582 μm and 31.689 μm and 28.581 μm and 25.207 μm and 26.625 μm and 29.576 μm and 28.954 μm and 37.237 μm and 34.673 μm and 26.256 μm and 29.926 μm and 35.484 μm and 34.715 μm and 36.694 μm and 38.253 μm and 32.381 μm and 33.458 μm and 33.871 μm and 36.611 μm and 27.419 μm and 34.733 μm and 25.544 μm and 26.908 μm and 37.411 μm and 29.937 μm and 35.493 μm and 34.034 μm and 32.419 μm and 29.046 μm
- Thickness of IPL (μm), Distance from Optic Disk 600 μm ([2]; 600 μm from optic disk, individual measurements per animal, listed as compond 9): 38.128 μm and 36.322 μm and 43.429 μm and 43.876 μm and 37.066 μm and 37.938 μm and 42.704 μm and 40.500 μm and 46.031 μm and 45.964 μm and 42.314 μm (2×) and 45.398 μm and 49.200 μm and 42.129 μm and 48.205 μm and 50.755 μm and 43.015 μm and 42.630 μm and 42.759 μm and 41.121 μm and 42.214 μm and 37.880 μm and 41.066 μm and 41.515 μm and 38.919 μm and 45.161 μm and 49.299 μm and 44.538 μm and 46.083 μm
- Thickness of INL (μm), Distance from Optic Disk 600 μm, Mean ([2]; 600 μm from optic disk, mean per animal): 26.246 μm and 31.668 μm and 25.792 μm and 28.479 μm and 36.440 μm and 28.706 μm and 35.231 μm and 36.327 μm and 32.753 μm and 33.176 μm
